Experiment [1] deals with Serine/threonine-protein kinase ATR (Homo sapiens, UniProt Q13535).
Experiment [2] addresses T1, Serine/threonine-protein kinase D3 (Homo sapiens, UniProt O94806).
T1 sequence (O94806 whole entry): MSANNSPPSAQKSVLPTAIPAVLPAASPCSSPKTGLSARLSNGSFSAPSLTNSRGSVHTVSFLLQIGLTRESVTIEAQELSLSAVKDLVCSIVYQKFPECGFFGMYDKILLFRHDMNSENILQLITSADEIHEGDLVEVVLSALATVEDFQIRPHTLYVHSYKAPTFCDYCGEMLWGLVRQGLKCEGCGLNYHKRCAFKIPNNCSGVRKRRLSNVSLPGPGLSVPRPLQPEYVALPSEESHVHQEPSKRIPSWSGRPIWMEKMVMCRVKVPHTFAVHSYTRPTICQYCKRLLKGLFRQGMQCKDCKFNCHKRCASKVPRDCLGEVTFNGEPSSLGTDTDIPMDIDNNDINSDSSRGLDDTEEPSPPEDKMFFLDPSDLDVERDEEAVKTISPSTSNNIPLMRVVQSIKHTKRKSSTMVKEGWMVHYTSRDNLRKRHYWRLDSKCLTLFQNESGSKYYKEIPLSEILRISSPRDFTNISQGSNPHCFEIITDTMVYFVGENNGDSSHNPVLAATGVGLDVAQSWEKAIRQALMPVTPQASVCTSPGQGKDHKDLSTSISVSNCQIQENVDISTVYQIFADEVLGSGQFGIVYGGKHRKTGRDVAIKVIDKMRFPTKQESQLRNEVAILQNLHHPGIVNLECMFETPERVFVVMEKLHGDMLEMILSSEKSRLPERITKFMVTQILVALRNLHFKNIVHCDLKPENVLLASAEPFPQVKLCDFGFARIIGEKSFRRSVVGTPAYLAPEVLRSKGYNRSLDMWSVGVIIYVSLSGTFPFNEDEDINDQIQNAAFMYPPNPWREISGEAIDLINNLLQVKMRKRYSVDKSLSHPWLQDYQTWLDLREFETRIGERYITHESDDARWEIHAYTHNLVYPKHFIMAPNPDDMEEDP

Experiment [3] has as its target MAP/microtubule affinity-regulating kinase 3 (Homo sapiens, UniProt P27448).
The target in experiment [4] is T2, Phosphatidylinositol 5-phosphate 4-kinase type-2 alpha (Homo sapiens, UniProt P48426).
T2 sequence (P48426 whole entry): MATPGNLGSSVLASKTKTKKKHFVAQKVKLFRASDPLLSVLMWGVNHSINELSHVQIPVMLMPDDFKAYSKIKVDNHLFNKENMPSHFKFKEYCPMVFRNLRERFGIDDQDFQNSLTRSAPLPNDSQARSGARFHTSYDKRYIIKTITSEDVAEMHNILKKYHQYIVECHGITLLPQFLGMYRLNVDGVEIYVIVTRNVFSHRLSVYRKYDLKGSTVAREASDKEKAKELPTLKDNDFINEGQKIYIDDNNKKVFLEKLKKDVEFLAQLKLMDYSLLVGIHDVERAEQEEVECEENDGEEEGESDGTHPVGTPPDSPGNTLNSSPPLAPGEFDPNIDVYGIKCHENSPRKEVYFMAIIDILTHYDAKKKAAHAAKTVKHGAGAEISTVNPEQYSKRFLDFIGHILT

In experiment [5] the target is T3, Heme oxygenase 2 (Homo sapiens, UniProt P30519).
T3 sequence (P30519 whole entry): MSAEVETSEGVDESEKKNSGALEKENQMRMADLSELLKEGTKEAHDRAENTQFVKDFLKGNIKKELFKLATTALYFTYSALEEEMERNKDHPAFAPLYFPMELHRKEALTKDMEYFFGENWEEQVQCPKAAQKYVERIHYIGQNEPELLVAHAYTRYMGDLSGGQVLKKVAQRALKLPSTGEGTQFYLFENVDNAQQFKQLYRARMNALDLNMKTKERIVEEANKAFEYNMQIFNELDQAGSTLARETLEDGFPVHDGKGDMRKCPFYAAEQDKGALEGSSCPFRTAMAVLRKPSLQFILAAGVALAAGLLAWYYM

Experiment [6] concerns the target Serine/threonine-protein kinase MRCK gamma (Homo sapiens, UniProt Q6DT37).
Experiment [7] has as its target Ribosomal protein S6 kinase alpha-1 (Homo sapiens, UniProt Q15418).
In experiment [8] the target is T4, Beta-adrenergic receptor kinase 1 (Homo sapiens, UniProt P25098).
T4 sequence (P25098 whole entry): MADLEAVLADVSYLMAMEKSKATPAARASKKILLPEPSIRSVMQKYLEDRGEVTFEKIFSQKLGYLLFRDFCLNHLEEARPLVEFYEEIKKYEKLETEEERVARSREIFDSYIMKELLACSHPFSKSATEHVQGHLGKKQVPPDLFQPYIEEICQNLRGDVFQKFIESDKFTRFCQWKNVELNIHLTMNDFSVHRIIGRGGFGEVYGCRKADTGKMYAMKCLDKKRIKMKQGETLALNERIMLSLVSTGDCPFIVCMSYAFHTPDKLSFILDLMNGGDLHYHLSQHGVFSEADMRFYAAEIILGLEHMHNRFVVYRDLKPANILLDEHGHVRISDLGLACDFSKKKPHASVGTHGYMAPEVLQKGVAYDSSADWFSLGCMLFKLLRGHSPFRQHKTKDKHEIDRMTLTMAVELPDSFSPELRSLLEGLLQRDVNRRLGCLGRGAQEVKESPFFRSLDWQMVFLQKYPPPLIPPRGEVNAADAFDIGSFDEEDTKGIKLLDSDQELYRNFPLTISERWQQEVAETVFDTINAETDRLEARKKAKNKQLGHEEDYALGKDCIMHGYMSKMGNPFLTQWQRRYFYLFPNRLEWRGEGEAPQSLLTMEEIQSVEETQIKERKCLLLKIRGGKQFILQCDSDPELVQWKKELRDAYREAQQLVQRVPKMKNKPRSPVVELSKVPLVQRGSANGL

For experiment [9], the target named is Tyrosine-protein kinase ABL1 (Homo sapiens, UniProt P00519).
Chain of Tyrosine-protein kinase ABL1 (P00519 whole entry): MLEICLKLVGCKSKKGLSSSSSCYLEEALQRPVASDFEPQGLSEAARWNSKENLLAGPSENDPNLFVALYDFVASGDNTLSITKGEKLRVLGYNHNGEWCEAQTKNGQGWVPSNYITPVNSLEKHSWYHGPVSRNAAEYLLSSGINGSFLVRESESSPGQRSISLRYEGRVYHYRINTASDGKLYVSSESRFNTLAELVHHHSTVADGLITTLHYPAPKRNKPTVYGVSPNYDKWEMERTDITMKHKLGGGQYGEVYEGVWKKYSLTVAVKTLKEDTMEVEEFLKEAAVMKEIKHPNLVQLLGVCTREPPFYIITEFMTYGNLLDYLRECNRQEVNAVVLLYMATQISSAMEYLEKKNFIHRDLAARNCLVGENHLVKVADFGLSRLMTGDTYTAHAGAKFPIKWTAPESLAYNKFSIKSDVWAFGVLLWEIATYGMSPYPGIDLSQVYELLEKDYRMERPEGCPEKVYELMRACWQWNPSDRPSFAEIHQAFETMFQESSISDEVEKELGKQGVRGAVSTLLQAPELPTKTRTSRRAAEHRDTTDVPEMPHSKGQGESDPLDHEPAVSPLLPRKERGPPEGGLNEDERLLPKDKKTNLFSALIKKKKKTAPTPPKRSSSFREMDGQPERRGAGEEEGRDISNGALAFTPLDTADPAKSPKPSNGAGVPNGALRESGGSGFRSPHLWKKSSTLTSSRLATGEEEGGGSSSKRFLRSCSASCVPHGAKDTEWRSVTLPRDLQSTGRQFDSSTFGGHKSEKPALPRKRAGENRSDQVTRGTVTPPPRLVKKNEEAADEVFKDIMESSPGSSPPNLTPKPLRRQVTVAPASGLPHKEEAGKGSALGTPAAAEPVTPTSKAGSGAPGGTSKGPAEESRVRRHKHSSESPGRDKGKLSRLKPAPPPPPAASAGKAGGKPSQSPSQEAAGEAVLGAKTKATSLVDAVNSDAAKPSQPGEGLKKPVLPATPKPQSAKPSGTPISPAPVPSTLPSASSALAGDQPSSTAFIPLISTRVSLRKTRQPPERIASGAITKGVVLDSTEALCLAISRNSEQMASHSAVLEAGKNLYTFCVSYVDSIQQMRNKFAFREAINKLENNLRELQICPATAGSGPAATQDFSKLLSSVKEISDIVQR
Experiment [10] deals with Protein kinase C theta type (Homo sapiens, UniProt Q04759).
Chain of Protein kinase C theta type (Q04759 whole entry): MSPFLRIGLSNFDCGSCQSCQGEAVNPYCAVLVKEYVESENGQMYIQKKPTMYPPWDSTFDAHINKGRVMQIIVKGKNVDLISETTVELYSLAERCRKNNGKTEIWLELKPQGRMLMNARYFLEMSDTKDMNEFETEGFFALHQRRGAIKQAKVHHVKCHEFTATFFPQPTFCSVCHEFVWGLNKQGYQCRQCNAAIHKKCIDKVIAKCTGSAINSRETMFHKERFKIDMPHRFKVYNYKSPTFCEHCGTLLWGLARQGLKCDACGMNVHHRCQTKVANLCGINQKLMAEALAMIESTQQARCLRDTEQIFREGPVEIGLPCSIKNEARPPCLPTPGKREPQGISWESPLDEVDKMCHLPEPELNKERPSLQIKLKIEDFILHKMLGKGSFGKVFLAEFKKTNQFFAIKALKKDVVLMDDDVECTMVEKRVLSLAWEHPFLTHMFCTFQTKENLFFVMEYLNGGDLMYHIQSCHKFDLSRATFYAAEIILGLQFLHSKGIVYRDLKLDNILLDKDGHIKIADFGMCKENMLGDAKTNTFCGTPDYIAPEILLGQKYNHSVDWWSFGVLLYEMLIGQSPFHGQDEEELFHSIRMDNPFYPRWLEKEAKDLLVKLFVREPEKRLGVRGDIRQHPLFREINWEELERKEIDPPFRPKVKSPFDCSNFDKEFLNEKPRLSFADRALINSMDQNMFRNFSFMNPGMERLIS

Data on 3 compounds can be found in ChEMBL document CHEMBL3991601, “The target landscape of clinical kinase drugs” (Science, 2017).

Active and inactive are the calls of the source.

What is called Kd is a measure of binding affinity in units of concentration.
Note: in the data inactive means no Kd found up to 30 µM.

Chain of MAP/microtubule affinity-regulating kinase 3 (P27448 whole entry): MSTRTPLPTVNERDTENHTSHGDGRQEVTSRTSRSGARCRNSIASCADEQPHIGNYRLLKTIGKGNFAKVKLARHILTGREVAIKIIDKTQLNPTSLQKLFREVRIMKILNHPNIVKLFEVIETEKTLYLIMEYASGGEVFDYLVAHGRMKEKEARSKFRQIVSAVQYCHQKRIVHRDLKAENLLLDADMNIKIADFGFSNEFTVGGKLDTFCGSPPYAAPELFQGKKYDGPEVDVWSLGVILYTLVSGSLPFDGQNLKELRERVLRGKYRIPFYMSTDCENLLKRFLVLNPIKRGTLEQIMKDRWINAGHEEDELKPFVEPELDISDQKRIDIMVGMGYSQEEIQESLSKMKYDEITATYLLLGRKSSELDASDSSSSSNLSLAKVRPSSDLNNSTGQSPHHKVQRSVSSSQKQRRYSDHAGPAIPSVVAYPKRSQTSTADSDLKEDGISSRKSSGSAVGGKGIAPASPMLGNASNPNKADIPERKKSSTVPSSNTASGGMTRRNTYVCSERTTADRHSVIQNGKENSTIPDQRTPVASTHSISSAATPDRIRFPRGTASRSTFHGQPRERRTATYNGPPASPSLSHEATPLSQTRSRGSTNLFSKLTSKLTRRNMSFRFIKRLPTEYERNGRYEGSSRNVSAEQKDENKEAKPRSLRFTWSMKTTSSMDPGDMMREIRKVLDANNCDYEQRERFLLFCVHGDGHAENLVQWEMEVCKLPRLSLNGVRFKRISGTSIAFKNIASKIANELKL
Chain of Serine/threonine-protein kinase MRCK gamma (Q6DT37 whole entry): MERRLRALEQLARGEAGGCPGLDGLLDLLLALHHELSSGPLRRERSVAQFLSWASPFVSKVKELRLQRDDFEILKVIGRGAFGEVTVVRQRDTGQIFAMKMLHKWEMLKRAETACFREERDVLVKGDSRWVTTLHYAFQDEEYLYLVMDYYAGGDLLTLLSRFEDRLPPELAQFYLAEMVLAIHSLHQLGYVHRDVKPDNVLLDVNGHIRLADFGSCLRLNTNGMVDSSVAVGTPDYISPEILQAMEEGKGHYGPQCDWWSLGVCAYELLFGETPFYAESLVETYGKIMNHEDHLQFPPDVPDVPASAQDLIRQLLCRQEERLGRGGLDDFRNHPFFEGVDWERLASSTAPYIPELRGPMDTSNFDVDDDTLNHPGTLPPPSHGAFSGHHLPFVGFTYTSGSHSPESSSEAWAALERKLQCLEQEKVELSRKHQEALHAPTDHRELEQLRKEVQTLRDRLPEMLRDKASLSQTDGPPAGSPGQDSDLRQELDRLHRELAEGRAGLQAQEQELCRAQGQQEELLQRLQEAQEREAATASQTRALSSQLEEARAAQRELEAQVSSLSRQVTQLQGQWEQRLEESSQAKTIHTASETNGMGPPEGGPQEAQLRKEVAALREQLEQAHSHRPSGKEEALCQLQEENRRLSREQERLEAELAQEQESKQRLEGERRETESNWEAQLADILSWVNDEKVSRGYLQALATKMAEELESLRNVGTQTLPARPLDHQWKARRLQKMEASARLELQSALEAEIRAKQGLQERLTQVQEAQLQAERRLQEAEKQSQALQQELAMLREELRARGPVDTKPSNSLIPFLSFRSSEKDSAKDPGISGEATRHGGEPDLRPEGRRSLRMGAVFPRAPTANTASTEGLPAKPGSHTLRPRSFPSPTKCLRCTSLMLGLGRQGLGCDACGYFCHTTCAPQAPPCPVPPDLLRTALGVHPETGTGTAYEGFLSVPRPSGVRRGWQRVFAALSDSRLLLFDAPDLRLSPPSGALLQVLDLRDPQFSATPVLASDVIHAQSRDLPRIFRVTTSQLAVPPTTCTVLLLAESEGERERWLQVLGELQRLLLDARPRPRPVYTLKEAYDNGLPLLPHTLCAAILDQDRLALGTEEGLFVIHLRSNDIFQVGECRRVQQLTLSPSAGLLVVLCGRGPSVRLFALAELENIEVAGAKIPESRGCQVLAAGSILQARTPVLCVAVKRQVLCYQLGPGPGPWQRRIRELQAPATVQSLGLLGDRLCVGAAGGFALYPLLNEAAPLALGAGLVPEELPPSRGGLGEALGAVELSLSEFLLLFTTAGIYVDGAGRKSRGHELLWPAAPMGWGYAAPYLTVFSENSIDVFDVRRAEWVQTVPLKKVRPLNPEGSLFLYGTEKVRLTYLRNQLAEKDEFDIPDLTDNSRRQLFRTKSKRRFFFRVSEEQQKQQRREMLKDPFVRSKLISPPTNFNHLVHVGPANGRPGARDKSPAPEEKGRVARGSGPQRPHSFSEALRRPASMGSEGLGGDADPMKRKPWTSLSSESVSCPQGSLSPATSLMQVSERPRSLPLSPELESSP
Chain of Ribosomal protein S6 kinase alpha-1 (Q15418 whole entry): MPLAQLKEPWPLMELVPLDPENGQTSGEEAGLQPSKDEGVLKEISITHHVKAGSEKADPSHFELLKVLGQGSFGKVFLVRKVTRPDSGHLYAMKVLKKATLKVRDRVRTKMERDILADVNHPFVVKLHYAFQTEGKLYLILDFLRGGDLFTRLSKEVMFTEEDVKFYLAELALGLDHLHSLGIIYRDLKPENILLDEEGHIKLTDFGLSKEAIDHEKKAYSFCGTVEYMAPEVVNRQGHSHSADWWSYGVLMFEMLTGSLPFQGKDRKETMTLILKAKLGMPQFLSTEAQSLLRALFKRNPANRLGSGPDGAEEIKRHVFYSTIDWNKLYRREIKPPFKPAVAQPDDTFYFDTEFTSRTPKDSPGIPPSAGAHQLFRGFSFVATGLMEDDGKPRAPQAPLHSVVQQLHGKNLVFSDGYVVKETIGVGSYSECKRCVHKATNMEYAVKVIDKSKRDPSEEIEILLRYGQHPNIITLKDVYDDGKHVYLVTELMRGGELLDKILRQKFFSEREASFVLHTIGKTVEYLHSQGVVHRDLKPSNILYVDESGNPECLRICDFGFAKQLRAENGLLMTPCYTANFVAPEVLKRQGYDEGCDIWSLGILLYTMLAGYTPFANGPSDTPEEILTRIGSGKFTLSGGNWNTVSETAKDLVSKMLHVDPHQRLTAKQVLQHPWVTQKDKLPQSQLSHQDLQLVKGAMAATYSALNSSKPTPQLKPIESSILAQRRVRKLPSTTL

Turning to `COc1cc2c(Nc3ccc(Cl)c(Cl)c3F)ncnc2cc1OC[C@@H]1C[C@@H]2CN(C)C[C@@H]2C1` [TESEVATINIB], the Kd in experiment [1], in experiment [2], in experiment [3], in experiment [4], in [5] and in [6] was > 30 µM (inactive) in each case. Further, the Kd in [7] was > 30 µM (inactive); in [8], > 30 µM (inactive); in [9] it was 0.921 µM (active); in [10] it was > 30 µM (inactive).

`C[C@@H](NC(=O)c1ncnc(N)c1Cl)c1ncc(C(=O)Nc2cc(C(F)(F)F)c(Cl)cn2)s1` [TOVORAFENIB]: the Kd in experiment [1], in [2], in experiment [3], in [4], in [5] and in experiment [6] was > 30 µM (inactive) throughout. Also, the Kd in [7] was > 30 µM (inactive); in experiment [8], > 30 µM (inactive); in [9] it was 0.498 µM (active); in experiment [10], > 30 µM (inactive).

Take `CN1C/C=C/CCOc2cccc(c2)-c2ccnc(n2)Nc2cccc(c2)C1` [ZOTIRACICLIB]: the Kd is > 30 µM (inactive) in [1]; 0.557 µM (active) in [2]; > 30 µM (inactive) in experiment [3]; > 30 µM (inactive) in experiment [4]; > 30 µM (inactive) in experiment [5]; > 30 µM (inactive) in experiment [6]. Further, the Kd is > 30 µM (inactive) in experiment [7], > 30 µM (inactive) in [8], 32.2 µM in experiment [9] and > 30 µM (inactive) in [10].
